pKi: −log10 of the molar value. Like-named read-outs stand apart in the source and are kept apart here.

A word on the melting point: it is the temperature of the solid-liquid transition. As usually defined, the pKi is the Ki on a negative log10 scale, so that one unit is a factor of ten.

The target in data set [1] is T1, 5-HT6 receptor (Homo sapiens, UniProt P50406). In words: In vitro affinity for human 5-HT6 receptors, [3H]-LSD binding in CHO cell membranes. The arrangement: host or cells: CHO/Gα16/mtAEQ/h5HT6-A1 (CHO AequoScreen recombinant cell line). Conditions: for Ki: [3H]-LSD 5.0 nM, membranes of CHO cells transfected with human 5-HT6, read-out: 5-HT6 pKi (converted).
Method: Affinity for human 5-HT6 receptors was measured in a membrane preparation of CHO-cells transfected with human 5-HT6 receptors by binding studies using [^3H]-N-Methyl-Lysergic acid diethylamide ([^3H]-LSD) as ligand. […] CHO/Gα16/mtAEQ/h5HT6-A1 cells were grown in T-flasks in CHO-S-SFM II medium (Gibco BRL), supplemented with 1% dialysed FCS, 2 mM L-glutamine, Geneticin 500 μg/ml and Zeocin 200 μg/ml. […] After thawing cells were centrifuged during 3 minutes at 1500 g at 4° C. […] The assay was established so as to achieve steady state conditions and to optimize specific binding. For the 5-HT6 receptor, membranes from 5.10^5 cells were incubated with 5.0 nM [^3H]-LSD at 37° C. for 30 minutes. Nonspecific binding was determined using 10^−5 M serotonin. Assays were terminated by vacuum filtration through glass fiber filters (GF/B) which had been pretreated with 0.5% polyethyleneimine. Total and bound radioactivity was determined by liquid scintillation counting. […] Compounds were tested at a 4 log concentration range; all determinations were performed as triplicates. IC50 values were determined by non-linear regression analysis using Hill equation curve fitting. The inhibition constants (Ki-values) were calculated from the Cheng-Preushoff equation: Ki=IC50:(1+L/Kd) wherein L represents the concentration radioligand ([^3H]-LSD) in the assay, and Kd the affinity of the radioligand for the receptor. Results are expressed as pKi-values, means±SD of at least three separate experiments.
The target in data set [2] is T1, 5-HT6 receptor. In words: In vitro functional activity (antagonism) on human 5-HT6 receptors, CHO-human-5HT6-Aequorin assay. More on the design: host or cells: CHO/Gα16/mtAEQ/h5HT6-A1 (CHO AequoScreen recombinant cell line). The class given is cell-based.
Method: Human-5-HT6-Aequorin cells express mitochondrial targeted apo-Aequorin. Cells have to be loaded with coelanterazine, in order to reconstitute active Aequorin. […] This luminescent response is dependent on the agonist concentration. Luminescence is measured using the MicroBeta Jet (Perkin Elmer). Agonistic effects of compounds are expressed as pEC50. […] Compounds were tested at a 5 log concentration range, and 3 independent experiments were performed in duplicate.
Setting [3] is: antagonism of 10^-8 M α-methylserotonin induced luminescence, CHO-human-5HT6-Aequorin cells, read-out: 5-HT6 pA2 (converted).
The mark [4] stands for this setting: antagonism of 10^-8 M α-methylserotonin induced luminescence, CHO-human-5HT6-Aequorin cells.

T1 sequence (P50406 whole entry): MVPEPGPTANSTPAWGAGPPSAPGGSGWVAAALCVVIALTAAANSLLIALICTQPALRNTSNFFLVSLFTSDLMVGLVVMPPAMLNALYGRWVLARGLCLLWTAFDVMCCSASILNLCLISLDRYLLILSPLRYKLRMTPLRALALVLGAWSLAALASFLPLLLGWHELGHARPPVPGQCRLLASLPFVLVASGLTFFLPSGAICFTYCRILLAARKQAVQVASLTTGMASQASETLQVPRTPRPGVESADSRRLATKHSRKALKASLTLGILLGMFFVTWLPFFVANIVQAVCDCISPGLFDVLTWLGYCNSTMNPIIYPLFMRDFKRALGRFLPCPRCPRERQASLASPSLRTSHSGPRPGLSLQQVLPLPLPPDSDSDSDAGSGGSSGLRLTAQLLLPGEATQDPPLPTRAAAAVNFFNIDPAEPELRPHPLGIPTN

As to `CN/C(=N\S(=O)(=O)c1ccc(F)cc1)N1CCC(c2ccc(Cl)cc2)=N1`, the melting point lay in the range of 188 to 189 °C.

`CCN/C(=N\S(=O)(=O)c1ccc(Cl)cc1)N1CC(CC)C=N1` (stereo not drawn) yielded a melting point of 84 to 86 °C.

Regarding `CCN/C(=N\S(=O)(=O)c1cccc2ccccc12)N1CC(CC)C=N1` (stereo not drawn), the melting point was 79 to 80 °C. Still for that read-out and setting: the value for `CCN/C(=N\S(=O)(=O)c1ccccc1Cl)N1CCC(CC)=N1` was 91 to 93 °C. Take `CCN/C(=N\S(=O)(=O)c1cccc(Cl)c1)N1N=CC(CC)C1c1ccccc1` (single isomer, unassigned) [cis(+)-153]: at 5-HT6 receptor [1], the Ki is 1260 nM. Regarding `CCN/C(=N\S(=O)(=O)c1cccc(Cl)c1)N1N=CC(CC)C1c1ccccc1` (single isomer, unassigned) [cis(−)-153], the Ki on 5-HT6 receptor [1] is 50.1 nM. The same measure, in the same setting: the value for `CCN/C(=N\S(=O)(=O)c1cccc(Cl)c1)N1N=CC(CC)C1c1ccccc1` (single isomer, unassigned) [trans-(+)-153] was 126 nM; that for `CCN/C(=N\S(=O)(=O)c1cccc(Cl)c1)N1N=CC(CC)C1c1ccccc1` (single isomer, unassigned) [trans-(−)-153] was 398 nM. Turning to `CCC1C=NN(/C(N)=N/S(=O)(=O)c2c(Cl)nc3sccn23)C1` (single isomer, unassigned; (+)) [(+)123], the melting point was 146 to 147 °C. As for `CCN/C(=N\S(=O)(=O)c1c(Cl)nc2sccn12)N1CC(CC)C=N1` (single isomer, unassigned; (+)) [(+)-41], the Kb at 5-HT6 receptor [2] (setting [3]) was 1.26 nM. In turn, `CCC1C=NN(/C(N)=N/S(=O)(=O)c2c(Cl)nc3sccn23)C1` (single isomer, unassigned; (-)) [(−)-123] showed a melting point of 176 to 178 °C. Take `CCC1C=NN(/C(=N/S(=O)(=O)c2ccccc2Cl)N(CC)CC)C1` (stereo not drawn) [compound 1]: on 5-HT6 receptor [2], the Kb is 316 nM.

Consider `CCN/C(=N\S(=O)(=O)c1ccccc1Cl)N1CC(CC)C=N1` (stereo not drawn) [compound 2, 2-Chloro-N-[ethylamino-(4-ethyl-4,5-dihydro-pyrazol-1-yl)-methylene]-benzenesulfon-amide], for which, at 5-HT6 receptor [2] (setting [3]), the Kb is 3.16 nM. The Ki at 5-HT6 receptor [1] is 50.1 nM. For `CCC1C=NN(/C(N)=N/S(=O)(=O)c2ccccc2Cl)C1` (stereo not drawn) [compound 3], the melting point was 161 to 163 °C. The same measure, in the same setting: as for `CCC1C=NN(/C(=N/S(=O)(=O)c2ccccc2Cl)N(C)C)C1` (stereo not drawn) [compound 5], the figure is 94 to 95 °C; as for `CCC1C=NN(/C(=N/S(=O)(=O)c2ccccc2Cl)NCC2CCNCC2)C1` (stereo not drawn) [compound 11], 131 to 138 °C; as for `CCC1C=NN(/C(=N/S(=O)(=O)c2ccccc2Cl)Nc2ccccc2)C1` (stereo not drawn) [compound 12], 128 to 130 °C.

As to `CCC1C=NN(/C(=N/S(=O)(=O)c2ccccc2Cl)NCc2ccccc2)C1` (stereo not drawn) [compound 13], the Kb at 5-HT6 receptor [2] (setting [3]) is 200 nM. For the same compound, on 5-HT6 receptor [1], the Ki was 79.4 nM. On to `CCN/C(=N\S(=O)(=O)c1ccccc1)N1CC(CC)C=N1` (stereo not drawn) [compound 24], for which the melting point lay in the range of 43 to 45 °C. Regarding `CCN/C(=N\S(=O)(=O)c1cccc(Cl)c1)N1CCC=N1` [compound 28], on 5-HT6 receptor [2] (setting [4]), the “5-HT6 pA2” value is reported as 7.1. Further, the Kb on 5-HT6 receptor [2] (setting [3]) is 20 nM. On 5-HT6 receptor [1], the Ki is 20 nM. Turning to `CCC1C=NN(/C(N)=N/S(=O)(=O)c2cccc(Cl)c2)C1` (stereo not drawn) [compound 29], the melting point lay within 141 to 142 °C. Still for that read-out and setting: the value for `CCC1C=NN(/C(N)=N/S(=O)(=O)c2ccc(C)cc2)C1` (stereo not drawn) [compound 31] was 131 to 133 °C. As to `CCN/C(=N\S(=O)(=O)c1cccc(Cl)c1)N1CC(C)(C)C=N1` [compound 33, 3-Chloro-N-[(4,4-dimethyl-4,5-dihydro-pyrazol-1-yl)-ethylamino-methylene]-benzenesulfonamide], the Kb at 5-HT6 receptor [2] (setting [3]) is 12.6 nM. Further, the Ki on 5-HT6 receptor [1] was 15.8 nM.

In the case of `CCN/C(=N\S(=O)(=O)c1cccc(Cl)c1)N1CCC(C)=N1` [compound 42], the “5-HT6 pA2” value at 5-HT6 receptor [2] (setting [4]) was 6.9. The negative-log Ki (pKi) at 5-HT6 receptor [1] (5-HT6 pKi) was 6.70.

In the case of `CCN/C(=N\S(=O)(=O)c1cccs1)N1CC(CC)C=N1` (stereo not drawn) [compound 51], on 5-HT6 receptor [2] (setting [3]), the Kb is 200 nM. On 5-HT6 receptor [1], the Ki is 126 nM.

As for `CCN/C(=N\S(=O)(=O)c1cccc2nsnc12)N1CC(CC)C=N1` (stereo not drawn) [compound 78, Benzo[1,2,5]thiadiazole-4-sulfonic acid ethylamino-(4-ethyl-4,5-dihydro-pyrazol-1-yl)-methyleneamide], at 5-HT6 receptor [2] (setting [3]), the Kb is 79.4 nM. On 5-HT6 receptor [1], the Ki is 63.1 nM. The corresponding values for `CCN/C(=N\S(=O)(=O)/C=C/c1ccccc1)N1CC(CC)C=N1` (stereo not drawn) [compound 83] are 63.1 nM and 79.4 nM.

For the compound `CCN/C(=N\S(=O)(=O)c1cc2ccccc2s1)N1CC(CC)C=N1` (stereo not drawn) [compound 89], on 5-HT6 receptor [2] (setting [3]), the Kb was 0.794 nM. At 5-HT6 receptor [1], the Ki is 5.01 nM. The compound `N/C(=N\S(=O)(=O)c1cccc(Cl)c1)N1CC2(C=N1)CCCC2` [compound 97] showed a melting point of 146 to 147 °C. In the case of `CC1(C)C=NN(/C(N)=N/S(=O)(=O)c2ccc(Cl)s2)C1` [compound 102], the melting point is 162 to 164 °C. Turning to `CN/C(=N\S(=O)(=O)c1ccc(Cl)s1)N1CC(C)(C)C=N1` [compound 103], the Kb at 5-HT6 receptor [2] (setting [3]) was 50.1 nM. Also, at 5-HT6 receptor [1], the Ki is 79.4 nM. On to `CCC1C=NN(/C(N)=N/S(=O)(=O)c2ccc(Cl)s2)C1` (stereo not drawn) [compound 105], for which the melting point was in the range of 115 to 116 °C. On to `CCN/C(=N\S(=O)(=O)c1ccc(Cl)s1)N1CC(C)(C)C(C)=N1` [compound 112], for which, at 5-HT6 receptor [2] (setting [3]), the Kb was 63.1 nM. Moreover, the Ki at 5-HT6 receptor [1] was 200 nM. The corresponding values for `CCN/C(=N\S(=O)(=O)c1cccc(Cl)c1)N1CC(c2ccccc2)C=N1` (stereo not drawn) [compound 139] are 316 nM and 251 nM. On to `CCN/C(=N\S(=O)(=O)c1cccc(Cl)c1)N1CC(c2ccccc2)C(C)=N1` (stereo not drawn) [compound 140], for which the Ki at 5-HT6 receptor [1] is 200 nM. For `CCN/C(=N\S(=O)(=O)c1cccc(Cl)c1)N1N=CCC1c1ccco1` (stereo not drawn) [compound 144], on 5-HT6 receptor [2] (setting [4]), the “5-HT6 pA2” value was 8.1. For the same compound, the Ki at 5-HT6 receptor [1] is 7.94 nM. For `CCN/C(=N\S(=O)(=O)c1cccc(Cl)c1)N1N=CCC1c1cccnc1` (stereo not drawn) [compound 145], at 5-HT6 receptor [2] (setting [3]), the Kb is 12.6 nM. The Ki on 5-HT6 receptor [1] was 31.6 nM.

For the compound `CCN/C(=N\S(=O)(=O)c1cccc(Cl)c1)N1N=CCC1c1ccoc1` (stereo not drawn) [compound 146], on 5-HT6 receptor [2] (setting [3]), the Kb is 39.8 nM. Moreover, on 5-HT6 receptor [1], the Ki was 20 nM. For `CCN/C(=N\S(=O)(=O)c1cccc(Cl)c1)N1N=CCC1c1ccccn1` (stereo not drawn) [compound 147], the Kb on 5-HT6 receptor [2] (setting [3]) was 794 nM. Besides, the Ki at 5-HT6 receptor [1] was 316 nM. `CCN/C(=N\S(=O)(=O)c1cccc(Cl)c1)N1N=CCC1c1ccncc1` (stereo not drawn) [compound 148]: at 5-HT6 receptor [2] (setting [4]), the “5-HT6 pA2” value stood at 6.9. Besides, the Ki at 5-HT6 receptor [1] is 501 nM. As to `CCN/C(=N\S(=O)(=O)c1cccc(Cl)c1)N1N=CCC1c1ccsc1` (stereo not drawn) [compound 149], at 5-HT6 receptor [2] (setting [3]), the Kb is 31.6 nM. Moreover, the Ki at 5-HT6 receptor [1] was 12.6 nM.

On to `CCN/C(=N\S(=O)(=O)c1cccc(Cl)c1)N1N=CCC1c1cccs1` (stereo not drawn) [compound 150], for which the Kb on 5-HT6 receptor [2] (setting [3]) is 31.6 nM. Further, on 5-HT6 receptor [1], the Ki is 31.6 nM.

Regarding `CCN/C(=N\S(=O)(=O)c1cccc(Cl)c1)N1N=C(C(C)C)CC1c1ccccc1` (stereo not drawn) [compound 151], on 5-HT6 receptor [2] (setting [3]), the Kb is 501 nM. For the same compound, the Ki at 5-HT6 receptor [1] was 200 nM. Turning to `CCN/C(=N\S(=O)(=O)c1cccc(Cl)c1)N1N=CC(C)C1c1ccccc1` (stereo not drawn) [compound 152], on 5-HT6 receptor [1], the Ki is 158 nM. Same read-out and setting: as for `CCN/C(=N\S(=O)(=O)c1cccc(Cl)c1)N1N=CC(CC)C1c1ccccc1` (stereo not drawn) [compound 153], the figure is 158 nM. `CCN/C(=N\S(=O)(=O)c1cccc(Cl)c1)N1N=CC2CN(C)CCC21` (stereo not drawn) [compound 154]: the Kb at 5-HT6 receptor [2] (setting [3]) was 3.98 nM. The Ki at 5-HT6 receptor [1] was 10 nM. The like results for `CCN/C(=N\S(=O)(=O)c1cccc(Cl)c1)N1CC2(C=N1)CCN(C)CC2` [compound 157] were, in that order, 7.94 nM and 6.31 nM. The corresponding values for `CN/C(=N\S(=O)(=O)c1cccc(Cl)c1)N1CC2(C=N1)CCOCC2` [compound 160] are 200 nM and 79.4 nM. Turning to `N/C(=N\S(=O)(=O)c1cccc(Cl)c1)N1CC2(C=N1)CCOCC2` [compound 161], at 5-HT6 receptor [2] (setting [3]), the Kb was 100 nM. Further, the Ki on 5-HT6 receptor [1] is 79.4 nM. The corresponding values for `CCN/C(=N\S(=O)(=O)c1c(Cl)nc2sccn12)N1CC2(C=N1)CCOCC2` [compound 162] are 12.6 nM and 63.1 nM. Regarding `CN/C(=N\S(=O)(=O)c1c(Cl)nc2sccn12)N1CC2(C=N1)CCOCC2` [compound 163], the Kb at 5-HT6 receptor [2] (setting [3]) was 10 nM. Moreover, at 5-HT6 receptor [1], the Ki was 251 nM.

For `N/C(=N\S(=O)(=O)c1c(Cl)nc2sccn12)N1CC2(C=N1)CCOCC2` [compound 164], the Kb on 5-HT6 receptor [2] (setting [3]) was 39.8 nM. On 5-HT6 receptor [1], the Ki is 50.1 nM. Regarding `CCN/C(=N\S(=O)(=O)c1ccc(Cl)s1)N1CC2(C=N1)CCOCC2` [compound 165], the Kb on 5-HT6 receptor [2] (setting [3]) was 20 nM. Besides, the Ki at 5-HT6 receptor [1] was 25.1 nM. `CN/C(=N\S(=O)(=O)c1ccc(Cl)s1)N1CC2(C=N1)CCOCC2` [compound 166]: on 5-HT6 receptor [2] (setting [3]), the Kb was 79.4 nM. Besides, the Ki at 5-HT6 receptor [1] was 100 nM. The corresponding values for `N/C(=N\S(=O)(=O)c1ccc(Cl)s1)N1CC2(C=N1)CCOCC2` [compound 167] are 31.6 nM and 63.1 nM. As to `CCN/C(=N\S(=O)(=O)c1cccc(Cl)c1)N1CC(CCC(F)(F)F)(CCC(F)(F)F)C=N1` [compound 168], on 5-HT6 receptor [1], the Ki is 316 nM. Still for that read-out and setting: as for `CCN/C(=N\S(=O)(=O)N(C)c1ccccc1)N1CC(CC)C=N1` (stereo not drawn) [compound 172], the figure is 316 nM. Same read-out and setting: as for `CCN/C(=N\S(=O)(=O)c1ccc(N(C)C)cc1)N1CC(CC)C=N1` (stereo not drawn) [compound 174], the figure is 100 nM. Take `CCN/C(=N\S(=O)(=O)c1ccccc1Cl)N1CCCC1` [reference compound]: the Kb at 5-HT6 receptor [2] is > 10000 nM.

The values are drawn from US8722887B2, “Sulfonylpyrazole and sulfonylpyrazoline carboxamidine derivatives as 5-HT6 antagonists” (Abbvie Bahamas, Ltd., priority 2006, dated 2014).
